Here are results for 6 compounds from patent publication US4111923A, “Octapeptides and methods for their production” (Parke, Davis & Company, priority 1976, dated 1978).

This assay has as its system LRF-induced luteinizing hormone (LH) release in rat anterior pituitary cell cultures. The assay is described as follows: In vitro test in rat anterior pituitary cell cultures: inhibition of LRF-induced LH release into the culture medium. It counts as cell-based. As to the method: octapeptides of this invention are screened for LRF antagonist activity in vitro using rat anterior pituitary cell cultures as described by Vale et al. [Endocrinology, 91, 562 (1972)]. The inhibition of LRF-induced luteinizing hormone (LH) release into the culture medium is the endpoint in this in vitro bioassay. Active peptides are then tested in vivo by the procedures of Humphrey et al. [Endocrinology, 92, 1515 (1972)]. Antagonist activity is assessed by the inhibition of LRF-induced LH release in the female rat and LRF-induced ovulation in the rabbit.
Following are the results of the above in vitro tests on certain preferred compounds.

[1] abbreviates: compound 1×10^-8 molar, LRF 3.5×10^-10, LRF control 42.38, saline control 8.72.
Where [2] appears, read: compound 1×10^-9 molar, LRF 3.5×10^-10, LRF control 42.38, saline control 8.72.
Setting [3] is: compound 1×10^-10 molar, LRF 3.5×10^-10, LRF control 42.38, saline control 8.72.
[4] abbreviates: compound 2×10^-9 molar, LRF 3.5×10^-10, LRF control 42.38, saline control 8.72.
Where [5] appears, read: compound 2.5×10^-10 molar, LRF 3.5×10^-10, LRF control 42.38, saline control 8.72.
Setting [6] is: compound 3.5×10^-9 molar, LRF 3.5×10^-10, LRF control 42.38, saline control 8.72.
Where [7] appears, read: compound 6×10^-9 molar, LRF 3.5×10^-10, LRF control 42.38, saline control 8.72.
[8] abbreviates: compound 6×10^-10 molar, LRF 3.5×10^-10, LRF control 42.38, saline control 8.72.
Setting [9] is: first series, compound 1×10^-8 molar, LRF 5×10^-10, LRF control 52.80, saline control 13.28.
Setting [10] is: first series, compound 1×10^-9 molar, LRF 5×10^-10, LRF control 52.80, saline control 13.28.
Where [11] appears, read: first series, compound 1×10^-10 molar, LRF 5×10^-10, LRF control 52.80, saline control 13.28.
Where [12] appears, read: first series, compound 2.5×10^-9 molar, LRF 5×10^-10, LRF control 52.80, saline control 13.28.
The mark [13] stands for this setting: first series, compound 2.5×10^-10 molar, LRF 5×10^-10, LRF control 52.80, saline control 13.28.
The mark [14] stands for this setting: first series, compound 5×10^-9 molar, LRF 5×10^-10, LRF control 52.80, saline control 13.28.
The mark [15] stands for this setting: first series, compound 5×10^-10 molar, LRF 5×10^-10, LRF control 52.80, saline control 13.28.
Setting [16] is: second series, compound 1×10^-9 molar, LRF 5×10^-10, LRF control 69.43, saline control 18.17.
Setting [17] is: second series, compound 1×10^-10 molar, LRF 5×10^-10, LRF control 69.43, saline control 18.17.
Where [18] appears, read: second series, compound 2.5×10^-9 molar, LRF 5×10^-10, LRF control 69.43, saline control 18.17.
Setting [19] is: second series, compound 2.5×10^-10 molar, LRF 5×10^-10, LRF control 69.43, saline control 18.17.
Setting [20] is: second series, compound 5×10^-10 molar, LRF 5×10^-10, LRF control 69.43, saline control 18.17.
Where [21] appears, read: compound 2×10^-8 molar, LRF 3.5×10^-10, LRF control 42.38, saline control 8.72.
Where [22] appears, read: compound 1×10^-8 molar, LRF 5×10^-10, LRF control 46.58, saline control 9.10.
Setting [23] is: compound 1×10^-9 molar, LRF 5×10^-10, LRF control 46.58, saline control 9.10.
Setting [24] is: compound 5×10^-8 molar, LRF 5×10^-10, LRF control 46.58, saline control 9.10.
Setting [25] is: compound 5×10^-9 molar, LRF 5×10^-10, LRF control 46.58, saline control 9.10.

Non-standard residues stand in square brackets, D forms with d. Residues, ends and D or L forms follow the SMILES beside them. *: point of attachment. Cbz = O=C(OCc1ccccc1)*; Bn = c1ccc(C*)cc1

`CCNC(=O)[C@@H]1CCCN1C(=O)[C@H](CCCNC(=N)N)NC(=O)[C@H](CC(C)C)NC(=O)[C@@H](Cc1ccccc1)NC(=O)[C@H](Cc1ccc(O)cc1)NC(=O)[C@H](CO)NC(=O)[C@H](Cc1c[nH]c2ccccc12)NC(=O)[C@H](COCc1ccccc1)NC(=O)OCc1ccccc1.Cl` [N^α -Benzyloxycarbonyl-O-benzyl-L-seryl-L-tryptophyl-L-seryl-L-tyrosyl-D-phenylalanyl-L-leucyl-L-arginyl-L-proline N-ethylamide hydrochloride] (Cbz-S(Bn)WSY[dF]LRP-NHEt): the “% LH Release Inhibition” value under setting [1] is 99%; the “% LH Release Inhibition” value under setting [2] came out at 68%; the “% LH Release Inhibition” value under setting [3] is 18%; the “% LH Release Inhibition” value under setting [4] is listed as 83%; the “% LH Release Inhibition” value under setting [5] was found to be 37%; the “% LH Release Inhibition” value under setting [6] is 93%. The “% LH Release Inhibition” value is, setting by setting: under setting [7], 93%; under setting [8], 50%. Moreover, the “LH Value” is 9.16 ng/mL under setting [1]; 19.35 ng/mL under setting [2]; 36.48 ng/mL under setting [3]; 14.48 ng/mL under setting [4]; 29.88 ng/mL under setting [5]; 11.16 ng/mL under setting [6]. The “LH Value” turned out to be 10.95 ng/mL under setting [7] and 25.41 ng/mL under setting [8].

As for “N^α -BENZYLOXYCARBONYL-O-BENZYL-L-SERYL-L-TRYPTOPHYL-L-SERYL-L-TYROSYL-D-PENTAMETHYLPHENYLALANYL-L-LEUCYL-L-ARGINYL-L-PROLINE N-ETHYLAMIDE”, the “% LH Release Inhibition” value runs as follows: under setting [9], 104%; under setting [10], 91%; under setting [11], 36%; under setting [12], 105%; under setting [13], 47%; under setting [14], 100%. Also, the “% LH Release Inhibition” value stood at 70% under setting [15]; 104% under setting [16]; 46% under setting [17]; 98% under setting [18]; 77% under setting [19]; 90% under setting [20]. For the same compound, the “LH Value” is, setting by setting: under setting [9], 11.58 ng/mL; under setting [10], 16.69 ng/mL; under setting [11], 38.59 ng/mL; under setting [12], 11.35 ng/mL; under setting [13], 34.06 ng/mL; under setting [14], 13.16 ng/mL. Moreover, the “LH Value” by setting is: under setting [15], 25.16 ng/mL; under setting [16], 16.00 ng/mL; under setting [17], 46.11 ng/mL; under setting [18], 19.09 ng/mL; under setting [19], 30.08 ng/mL; under setting [20], 23.26 ng/mL.

With “N^α -Benzyloxycarbonyl-O-benzyl-L-seryl-L-tryptophyl-L-seryl-L-tyrosyl-DL-pentamethylphenylalanyl-L-leucyl-L-arginyl-L-proline N-ethylamide”, the “% LH Release Inhibition” value by setting is: under setting [9], 102%; under setting [10], 89%; under setting [12], 102%; under setting [13], 61%; under setting [14], 96%; under setting [15], 62%. Also, the “% LH Release Inhibition” value runs as follows: under setting [16], 100%; under setting [17], 42%; under setting [18], 108%; under setting [19], 65%; under setting [20], 87%. The “LH Value” is, setting by setting: under setting [9], 12.61 ng/mL; under setting [10], 17.58 ng/mL; under setting [12], 12.47 ng/mL; under setting [13], 28.53 ng/mL; under setting [14], 14.80 ng/mL; under setting [15], 28.31 ng/mL. Also, the “LH Value” was 18.35 ng/mL under setting [16]; 48.03 ng/mL under setting [17]; 13.91 ng/mL under setting [18]; 36.04 ng/mL under setting [19]; 24.94 ng/mL under setting [20].

Regarding “LRF: luteinizing hormone releasing factor, also referred to as luteinizing hormone releasing hormone, or LH-RH; stimulates secretion of luteinizing hormone (QHWSYGLRPG; Gonadoliberin-1; UniProt P01148 24-33, looked up) [reference compound]”, the “LH Value” reads like this: (LRF alone 3.5×10^-10 molar, saline control 8.72) 42.38 ng/mL; (LRF alone 5×10^-10 molar, saline control 9.10) 46.58 ng/mL; (first series, LRF alone 5×10^-10 molar, saline control 13.28) 52.80 ng/mL; (second series, LRF alone 5×10^-10 molar, saline control 18.17) 69.43 ng/mL.

For “N^α -Benzyloxycarbonyl-N^γ -benzyl-L-glutaminyl-L-tryptophyl-L-seryl-L-tyrosyl-D-phenylalanyl-L-leucyl-L-arginyl-L-proline N-ethylamide”, the “% LH Release Inhibition” value runs as follows: under setting [1], 92%; under setting [2], 56%; under setting [3], 35%; under setting [21], 94%; under setting [4], 60%; under setting [5], 20%. The “% LH Release Inhibition” value by setting is: under setting [6], 61%; under setting [7], 81%; under setting [8], 51%. For the same compound, the “LH Value” under setting [1] was determined as 11.28 ng/mL; the “LH Value” under setting [2] came to 23.66 ng/mL; the “LH Value” under setting [3] was determined as 30.60 ng/mL; the “LH Value” under setting [21] worked out at 10.77 ng/mL; the “LH Value” under setting [4] was determined as 22.09 ng/mL; the “LH Value” under setting [5] came out at 35.62 ng/mL. Moreover, the “LH Value” reads like this: under setting [6], 21.76 ng/mL; under setting [7], 15.07 ng/mL; under setting [8], 25.13 ng/mL.

Regarding `CCNC(=O)[C@@H]1CCCN1C(=O)[C@H](CCCNC(=N)N)NC(=O)[C@H](CC(C)C)NC(=O)[C@@H](Cc1ccccc1)NC(=O)[C@H](Cc1ccc(O)cc1)NC(=O)[C@H](CO)NC(=O)[C@H](Cc1c[nH]c2ccccc12)NC(=O)[C@H](CCC(N)=O)NC(=O)OCc1ccccc1` [N^α -Benzyloxycarbonyl-L-glutaminyl-L-tryptophyl-L-seryl-L-tyrosyl-D-phenylalanyl-L-leucyl-L-arginyl-L-proline N-ethylamide] (Cbz-QWSY[dF]LRP-NHEt), the “% LH Release Inhibition” value under setting [22] amounted to 71%, the “% LH Release Inhibition” value under setting [23] was 23%, the “% LH Release Inhibition” value under setting [24] is 95% and the “% LH Release Inhibition” value under setting [25] turned out to be 42%. The “LH Value” is, setting by setting: under setting [22], 19.91 ng/mL; under setting [23], 38.13 ng/mL; under setting [24], 11.16 ng/mL; under setting [25], 30.85 ng/mL.
